Ki data for 14 molecules are collected here from ChEMBL document CHEMBL3621125, “Click-tailed coumarins with potent and selective inhibitory action against the tumor-associated carbonic anhydrases IX and XII” (Bioorg Med Chem, 2015).

The target of one assay is Carbonic anhydrase 2 (Homo sapiens, UniProt P00918). Put plainly: Inhibition of human carbonic anhydrase 2 incubated for 6 hrs by stopped flow carbon-di-oxide hydrase assay.
A further assay addresses Carbonic anhydrase 9 (Homo sapiens, UniProt Q16790). Nature of the assay: Inhibition of human carbonic anhydrase 9 incubated for 6 hrs by stopped flow carbon-di-oxide hydrase assay.
Another assay deals with Carbonic anhydrase 1 (Homo sapiens, UniProt P00915). Put plainly: Inhibition of human carbonic anhydrase 1 incubated for 6 hrs by stopped flow carbon-di-oxide hydrase assay.
Sequence of Carbonic anhydrase 1 (P00915 whole entry): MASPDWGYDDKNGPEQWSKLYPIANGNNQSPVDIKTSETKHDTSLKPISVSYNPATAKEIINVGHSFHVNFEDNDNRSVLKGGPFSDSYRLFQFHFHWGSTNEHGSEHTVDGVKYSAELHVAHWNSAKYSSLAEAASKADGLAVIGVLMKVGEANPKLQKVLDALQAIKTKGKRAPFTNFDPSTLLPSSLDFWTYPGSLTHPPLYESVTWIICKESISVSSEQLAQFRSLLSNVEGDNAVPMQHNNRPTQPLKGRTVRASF

A word on the Ki: it is a dissociation constant, usually derived from enzyme kinetics or from competition with a known ligand. The low end stands for tighter binding, the high end for weaker binding.

Structures are written as SMILES.

For the molecule `O=c1ccc2ccc(OCc3cn(-c4ccc(C(F)(F)F)cc4)nn3)cc2o1`, at Carbonic anhydrase 2, the Ki is over 10 µM.
Regarding `Cc1cc(=O)oc2cc(-n3cc(COc4ccccc4)nn3)ccc12`, the Ki at Carbonic anhydrase 9 was 0.0331 µM; on Carbonic anhydrase 2, over 10 µM.
In the same order, the values of `O=c1ccc2ccc(OCc3cn(-c4ccc(F)cc4)nn3)cc2o1` are 0.024 µM and over 10 µM.
For the molecule `O=c1ccc2ccc(OCc3cn(-c4cccc(Br)c4)nn3)cc2o1`, the inhibition constant (Ki) at Carbonic anhydrase 9 is 0.0275 µM; at Carbonic anhydrase 2 it was over 10 µM; on Carbonic anhydrase 1 it was over 10 µM.
As for `O=c1ccc2ccc(OCc3cn(-c4cccc(F)c4)nn3)cc2o1`, the Ki was 0.0249 µM at Carbonic anhydrase 9 and over 10 µM on Carbonic anhydrase 2.
The corresponding values for `Cc1cc(=O)oc2cc(-n3cc(CNc4ccccc4)nn3)ccc12` are 0.0344 µM and 9.74 µM.
The corresponding values for `COc1cccc(-n2cc(COc3ccc4ccc(=O)oc4c3)nn2)c1` are 0.0236 µM and over 10 µM.
Consider `NS(=O)(=O)c1ccc(-n2cc(COc3ccc4ccc(=O)oc4c3)nn2)cc1`, for which the Ki on Carbonic anhydrase 9 was 0.0143 µM; on Carbonic anhydrase 2, over 10 µM.
The corresponding values for `O=c1ccc2ccc(OCc3cn(-c4ccc(O)cc4)nn3)cc2o1` are 0.0269 µM and over 10 µM.
On to `O=c1ccc2ccc(OCc3cn(-c4ccccc4)nn3)cc2o1`, for which the inhibition constant (Ki) was 0.0245 µM at Carbonic anhydrase 9, over 10 µM on Carbonic anhydrase 2 and over 10 µM at Carbonic anhydrase 1.
In the case of `O=C(O)c1ccc(-n2cc(COc3ccc4ccc(=O)oc4c3)nn2)cc1`, the Ki was 0.0288 µM at Carbonic anhydrase 9 and 0.0996 µM at Carbonic anhydrase 2.
As to `Cc1cc(=O)oc2cc(-n3cc(CSc4ccccc4)nn3)ccc12`, the Ki on Carbonic anhydrase 2 is over 10 µM.
As to `Cc1cc(=O)oc2cc(-n3cc(COc4ccc5ccc(=O)oc5c4)nn3)ccc12`, the inhibition constant Ki was 0.0228 µM at Carbonic anhydrase 9, over 10 µM at Carbonic anhydrase 2 and over 10 µM at Carbonic anhydrase 1.
With `O=c1ccc2ccc(OCc3cn(-c4cccc(Cl)c4)nn3)cc2o1`, the results for the Ki on Carbonic anhydrase 9, at Carbonic anhydrase 2 and on Carbonic anhydrase 1 were 0.0312 µM, over 10 µM and over 10 µM, respectively.
